{
  "source": "patent US9314507B2",
  "about": "“Methods of treatment of heart failure with natriuretic peptides” (Capricor Therapeutics, INC., priority 2010, dated 2016)",
  "type_in_all_cases": "in vivo, human",
  "key": {"clinical": {"assay": "clinical", "details": "human, in vivo; read-out: terminal elimination half-life"}, "healthy subjects": {"test_system": "healthy subjects", "assay": "clinical"}, "[1]": {"test_system": "patients hospitalized with acute heart failure requiring hemodynamic monitoring", "assay": "Hemodynamic Monitoring Phase 2a clinical study (Hemo Study, NIL-CDNP-CT003)", "experimental": "Another exemplary study using CD-NP was a multi-center, open-label Phase 2a clinical study of CD-NP in patients hospitalized with acute heart failure requiring hemodynamic monitoring (Hemo Study, or NIL-CDNP-CT003). This study considered the efficacy of 8 hours of intravenous administration of CD-NP on changes in cardiac output and pulmonary capillary wedge pressure (PCWP, or wedge pressure).\nStabilized acute heart failure patients requiring hemodynamic monitoring, and receiving standard-of-care heart failure medications (i.e., furosemide infusion), received an initial 8-hour CD-NP infusion followed by a 14-hour washout period, and then a further 8-hour CD-NP infusion. Hemodynamic measurements were collected for an additional 8 hours and safety measurements were collected for a further 2 days.\nPatients were enrolled into one of two sequential cohorts (Cohort A and B) which could include up to 10 evaluable patients in each cohort. Cohort A received 8 hours of 3 ng/kg/min CD-NP, followed by a 14 hour wash-out period, and then 8 hours of 10 ng/kg/min CD-NP. Cohort B received 8 hours of 1 ng/kg/min CD-NP, followed by a 14 hour wash-out period, and then 8 hours of 20 ng/kg/min CD-NP.\nThe first 2 hours, (−2 to 0) represent time before administration of CD-NP. Hours 0 to 38 represent time during the CD-NP dosing regimen discussed above."}, "[2]": {"test_system": "patients with chronic heart failure", "assay": "Dosing study (fixed and weight-based dose)", "experimental": "In a dosing study, CD-NP was administered to patients with chronic heart failure. The amount of CD-NP administered was either a set amount (in μg/hr) regardless of the patient's weight, or was varied based on the patient's weight.\nIn FIG. 10a, the steady state average (SS Avg) serum concentration of CD-NP in pg/mL is plotted against patient weight for patients who received low (18 μg/hr) and medium (24 μg/hr) doses of CD-NP.\nThe placebo group had no significant change in SBP over the course of the study. […] In one aspect, the SBP decrease for doses 24 μg/hr is insufficient to cause a risk of hypotension. […] The weight-based group received a dose that depended on the patients weight. Using PK data, for example the linear fit of data from FIG. 10a, the dose was adjusted to give a predicted serum concentration of 500 pg/mL.\nAs depicted in FIG. 12, the concentration of CD-NP in serum vs. time after initial dosing for patients on a low dose and a medium dose."}},
  "note": "Where a SMILES comes first, the peptide text is derived from it. Bridges are numbered along the chain shown (N, C = ends).",
  "data": [
    {"smiles": "CC[C@H](C)[C@@H]1NC(=O)[C@H](CCCNC(=N)N)NC(=O)[C@H](CC(=O)O)NC(=O)[C@H](CCCCN)NC(=O)[C@H](CC(C)C)NC(=O)CNC(=O)[C@H](Cc2ccccc2)NC(=O)[C@@H](NC(=O)CNC(=O)[C@H](CCCCN)NC(=O)[C@H](CO)NC(=O)[C@H](CC(C)C)NC(=O)CN)CSSC[C@@H](C(=O)N2CCC[C@H]2C(=O)N[C@@H](CO)C(=O)N[C@@H](CC(C)C)C(=O)N[C@@H](CCCNC(=N)N)C(=O)N[C@@H](CC(=O)O)C(=O)N2CCC[C@H]2C(=O)N[C@@H](CCCNC(=N)N)C(=O)N2CCC[C@H]2C(=O)N[C@@H](CC(N)=O)C(=O)N[C@@H](C)C(=O)N2CCC[C@H]2C(=O)N[C@@H](CO)C(=O)N[C@H](C(=O)N[C@@H](CO)C(=O)N[C@@H](C)C(=O)O)[C@@H](C)O)NC(=O)CNC(=O)[C@H](CC(C)C)NC(=O)CNC(=O)[C@H](CO)NC(=O)[C@H](CCSC)NC(=O)[C@H](CO)NC(=O)CNC1=O", "note": "[CD-NP, cenderitide] (H-GLSKGCFGLKDRIGSMSGLGCPSLRDPRPNAPSTSA-OH; disulfide 6-21; N-terminus and C-terminus assumed)", "values": [
      {"measurement": "half-life", "setting": "clinical", "result": "15 to 20", "unit": "min"},
      {"measurement": "orthostatic hypotension immediately after the infusion", "setting": "healthy subjects; 17.5 ng/kg/min, vs placebo arm", "result": "more events were observed in the CD-NP arm"},
      {"measurement": "subjects with symptomatic hypotension in association with orthostatic challenge immediately post-infusion", "setting": "healthy subjects; 25 ng/kg/min", "result": "two out of four"},
      {"measurement": "symptomatic hypotension during CD-NP dosing", "setting": "healthy subjects; during dosing", "result": "did not induce symptomatic hypotension"},
      {"measurement": "maximum tolerated dose (MTD)", "setting": "healthy subjects; healthy subjects, 10, 17.5 and 25 ng/kg/min tested", "result": 17.5, "unit": "ng/kg/min"},
      {"measurement": "time to steady state of natriuretic peptide", "setting": "healthy subjects; infusion", "result": "1 to 2", "unit": "h"},
      {"measurement": "SBP below 90 mmHg", "setting": "[1]; 20 ng/kg/min, 8 h infusion, FIG. 4b", "result": "one patient had a transient dip in SBP below 90 mmHg"},
      {"measurement": "well tolerated dose", "setting": "[1]; previous studies, co-administered with furosemide to stabilized heart failure patients", "result": "up to 20 ng/kg/min"},
      {"measurement": "area under the curve (AUC) vs patient weight", "setting": "[2]; FIG. 10b", "result": "decreases with increasing patient weight"},
      {"measurement": "change in SBP", "setting": "[2]; high dose 36 μg/hr (600 ng/min)", "result": "decrease in SBP that could possibly cause hypotension"},
      {"measurement": "steady state average (SS Avg) serum concentration vs patient weight", "setting": "[2]; low (18 μg/hr) and medium (24 μg/hr) doses, FIG. 10a", "result": "decreases with increasing patient weight"}
    ]}
  ]
}
